Experiments:
Assay type in all cases: cell-based, human
[1] = test system: Ad-MSC 3 cells; test: ROS induction (DCFH-DA), Ad-MSC 3; conditions: 1 h, different concentrations incl. higher
Experimental: (§1) Ad-MSC 3 and A431 cells were seeded in a 96-well tissue culture plate and incubated for 24 h as described above. Cells were washed twice with HBSS and incubated in 100 µL of DCFH-DA dye (R252-10, Dojindo) according to the manufacturer’s instructions. Cells were incubated for 30 min at 37 °C and washed twice with HBSS. […] Supernatant was removed, and the cells were washed with HBSS before imaging with the JuLI^TM Stage Cell History Recorder (NanoEnTek).

[2] = test system: Ad-MSC-GFP 3 cells; test: γ-H2AX staining of DNA double-stranded breaks, Ad-MSC-GFP 3
Experimental: (§2) Ad-MSC-GFP 3 cells were seeded into glass-bottomed chamber slides (ibidi, Germany, Grafelfing, Germany) at 1 × 10^4/well and A431-mCh at 1.6 × 10^4/well density. […] Cells in all chambers were fixed with 4% PFA for 15 min and washed twice with PBS. Blocking solution (0.5% BSA-PBS, 0.1% TritonX-100, 5% goat serum, and 1% fish gelatin) was used for 1 h. γ-H2A.X primary antibody (MA1-2022, Invitrogen, United States) was diluted in blocking solution at 1:500 concentration and incubated overnight at 4 °C. Afterwards, the cells were washed with PBS twice and goat anti-mouse A633 secondary antibody (A21052, abcam, Cambridge, UK) was diluted at 1:250 concentration in blocking solution. Nuclei was stained with a Hoechst-33342 (23491-52-3, Dojindo, Kumamoto, Japan) at 1:1000 concentration.
(§3) To quantify DNA damage based on immunofluorescence against γ-H2AX, a semi-automated image analysis pipeline was set up using CellProfiler v4.1.3 [10]. First, images showing DAPI-stained nuclei were pre-processed by intensity normalization and Gaussian filtering (ϭ = 20 px) to suppress noise and remove artifacts caused by debris. Nuclei candidates were identified by threshold-based segmentation; false candidates were removed from the analysis manually. Using the remaining nuclei regions as masks, pixel intensities were measured on the γ-H2AX channel, thus, excluding non-nuclei signals.

[3] = test system: Ad-MSC 3 cells; test: Apoptosis assay (Annexin V / TO-PRO-3 flow cytometry), Ad-MSC 3
Experimental: Apoptosis detection was based on the Annexin-V molecule binding to phosphatidylserine membrane molecules. Two cell lines were used to study apoptosis: Ad-MSC 3 cells were plated in a 5 × 10^4 cells/well concentration, while 4 × 10^4/well A431-mCh were seeded into each well in a 12-well tissue culture plate. […] At day 5, cells were trypsinized and centrifuged, while the supernatant was also collected and combined with the detached cells to include all already dead cells. Cells were washed twice with 500 µL of 1% BSA-PBS (bovine serum albumin dissolved in PBS, A8022, Sigma-Aldrich, St. Louis, MO, USA) solution and centrifuged at 400× G for 4 min. Cells were resuspended in 100 µL of 1× Annexin Binding Buffer (422201, Biolegend, San Diego, CA, USA), and 3 µL of Annexin V-Pacific Blue (A35122, Biolegend, San Diego, CA, USA) and 1 µL of TO-PRO-3 (R37170, Invitrogen, Waltham, MA, USA) were added to each sample. After 15 min of incubation, labeled and non-labeled samples were diluted 5-fold with 1× Annexin Binding Buffer and analyzed by Attune™ NxT flow cytometer.

[4] = test system: 6 MSCs and 3 cancer cell lines; test: Cytotoxicity / cell viability assay (PrestoBlue), panel of MSCs and cancer cell lines; conditions: 5 days treatment, IC50 comparison
Experimental: (§4) Cells were seeded in a 96-well tissue culture plate in 100 µL of medium. Ad-MSC-GFP 1, iAd-MSC-GFP 1, Ad-MSC-GFP 2, Ad-MSC-GFP 3, BM-MSC, and HFF were seeded at 5 × 10^3/100 µL/well density and A431-mCh, MES-SA-mCh, and MCF-7-GFP at 4 × 10^3 cells/100 µL/well concentration in DMEM-F12 media. Different initial cell numbers were used due to different proliferation rates of different cell types. Cells were allowed to attach overnight at 37 °C and the day after were treated with the drugs using the indicated concentrations in 100 µL. Cell viability was measured by using PrestoBlue™ Cell Viability Reagent (A13232, Invitrogen, Waltham, MA, USA). To address metabolic differences between cancer cells and MSCs, the assay was optimized for each cell line, cells were incubated with 5 or 12.5% PrestoBlue™ Cell Viability Reagent diluted in PBS at 37 °C/5% CO2 for 1–1.5 h 5 days after the treatment. The fluorescence signal was measured by an EnSpire (Perkin Elmer, Waltham, MA, USA) fluorometer at 555 nm (excitation)/585 nm (emission) wavelength.
After the incubation period, the relative fluorescence data was measured. The data was normalized with the fluorescence of blank samples (cell culture media). A sigmoidal dose–response curve was fitted to the normalized measurement data and the logarithm of the concentration using the least square method. An inhibitory concentration of 50% (IC50 and log10) was interpolated from the fitted graph. […] In these cases, IC50 was calculated from the line connecting the measurement points. For repeated measurements, average and standard deviation was calculated based on the logarithm of the IC50 values.
To compare the mean IC50 values of six mesenchymal stem cell lines (Group-1) and three cancer cell lines (Group-2), first an F-test was performed to check equal variances between the groups, then two-sample unpaired t-tests were performed to calculate significance using Microsoft® Excel® 2016 (16.0.4266.1001).

[5] = test system: A431-mCh cells; test: γ-H2AX staining of DNA double-stranded breaks, A431-mCh
Experimental: as §2, §3

[6] = test system: A431-mCh cells; test: Live cell imaging, confluency, A431-mCh; conditions: 120 h
Experimental: (§5) JuLI™ Stage Cell History Recorder was used to monitor a five-day cytotoxicity assay on Ad-MSC-GFP 3 and A431-mCh cell lines. […] Images were taken every 105 min for 120 h at 10× objective magnification. Live cell microscopy studies were evaluated using the “Growth curve” function of the JuLI STAT image analysis software (v2.0.1.0).

[7] = test system: Ad-MSC-GFP 3 cells; test: Cytotoxicity / cell viability assay (PrestoBlue) on Ad-MSC-GFP 3; conditions: Ad-MSC-GFP 3 / Ad-MSC 3, 5 days
Experimental: as §4
After the incubation period, the relative fluorescence data was measured. The data was normalized with the fluorescence of blank samples (cell culture media). […] In these cases, IC50 was calculated from the line connecting the measurement points. For repeated measurements, average and standard deviation was calculated based on the logarithm of the IC50 values.

[8] = test system: Ad-MSC 3 cells; test: Senescence β-galactosidase staining, Ad-MSC 3; conditions: 4 µM; 5 days treatment then 7 days drug-free
Experimental: At day 5, media was removed and replaced with 200 µL of completed DMEM-F12 for 7 days. The Senescence β-Galactosidase Staining Kit (9860S, Cell Signaling Technology, Danvers, MA, USA) was used to detect senescent cells. Cells were fixed with fixing solution, washed with PBS, stained with X-gal solution overnight at 37 °C without CO2, and coated with 70% glycerol.

[9] = test system: Ad-MSC-GFP 3 cells; test: Live cell imaging, confluency, Ad-MSC-GFP 3; conditions: 120 h live cell imaging
Experimental: as §5

[10] = test system: A431 cells; test: ROS induction (DCFH-DA), A431; conditions: 1 h, different concentrations incl. higher
Experimental: as §1

[11] = 120 h, IC50 concentrations of A431 (2 µM cisplatin, 0.1 µM doxorubicin, 30 µM nutlin-3)

N.N.[Cl][Pt][Cl] [cisplatin]
ROS induction [1]: did not induce ROS
number of double-stranded breaks (γ-H2AX) ([2]; 10 µM, 5 days): significantly increased the number of double-stranded breaks
DNA double-stranded breaks (γ-H2AX) [2, 11]: no DNA break was detected
apoptosis (in words) ([3]; 10 µM (IC50 level of Ad-MSC-GFP 3)): notable amounts of late apoptosic cells
apoptosis compared to untreated controls (in words) ([3]; 120 h): virtually no apoptosis
drug sensitivity of MSCs compared with cancer cells (in words) [4]: required significantly higher concentrations to kill MSCs than cancer cells
effect on A431 cells in γ-H2AX experiment ([5]; 10 µM, 5 days): almost completely eradicating A431 cells
DNA damage (γ-H2AX) [5, 11]: massive DNA damage
number of viable colonies in live cell imaging ([6]; IC50 of A431-mCh and 10-fold higher concentration): significantly reduced the number of viable colonies
growth kinetics in live cell imaging ([6]; concentration 10-fold lower than A431-mCh IC50): did not alter growth kinetics
IC50 [7]: 10 µM
SA-β-Gal staining (senescence) [8]: slightly increased SA-ß-Gal staining
concentration at which significant drops in confluency were seen, as multiple of Ad-MSC-GFP 3 IC50 [9]: 2 fold
ROS induction [10]: did not induce ROS
